Measurements: publication PMC9466626, “Discovery of new 1H-pyrazolo[3,4-d]pyrimidine derivatives as anticancer agents targeting EGFR^WT and EGFR^T790M” (Journal of Enzyme Inhibition and Medicinal Chemistry, 2022)
Where “and” joins values, the source holds several entries; their conditions need not be identical. Equal entries are not always repeated.

What was measured:
A549 cells = test: Annexin V-FITC apoptosis assay; assay type: cell-based, human
Method: The effect of compound 12b on cell apoptosis was investigated as described in Supplementary data[59]. […]
4.1.3. Annexin V-FITC apoptosis assay.
To detect the apoptosis induced by compound 12b, a549 cells were seeded and incubated overnight and then treated with compound 12b at concentrations of 8.21 µM µM for 48 h. DMSO was chosen as the negative control. After that, the cells were collected and washed with PBS two successive times. The cells were exposed to centrifugation. Apoptosis detection kit (BD Biosciences, San Jose, CA) was used in this test. According to the manufacturer's protocol the cells were stained by Annexin V-FITC and propidium iodide (PI) in the binding buffer for 20min at room temperature in the dark. Using a flow cytometer, Annexin V-FITC and PI binding were analyzed. flowjo software was used to analyze the frequencies in all quadrants.

WI-38 = test: In vitro cytotoxicity against normal cells (MTT), WI-38
Method: In vitro antiproliferative activities
The in vitro antiproliferative activities of all the synthesized compounds against two human
evaluated quantitatively as described in the literature, using MTT assay protocol . two
proliferative activity was assessed quantitatively as follows.
Human cancer cell lines were dropped in 96 -well plates at a density of 3-8 × 10^3 cells/well.
Next, the wells were incubated for 12 h in a 5% CO 2 incubator at 37 °C. Then, for each well, the growth medium was exchanged with 0.1 ml of fresh medium containing graded concentrations of the test compounds to be or equal DMSO and incubated for two days. Then 10 μl MTT solution (5 μg/ml) was added to each well, and the cells were incubated for additional 4 h. The crystals of MTT-formazan were dissolved in 100 μl of DMSO; the absorbance of each well was measured at 490 nm using an automatic ELISA reader system (TECAN, CHE). The IC 50 values were calculated using the nonlinear regression fitting models (Graph Pad, Prism Version 5). The data represented the mean of three independent experiments in triplicate and were expressed as means ± SD.
The results were expressed as growth inhibitory concentration (IC50) values and

Bcl-2 = test: qRT-PCR gene expression of Bcl-2 in A549 cells; assay type: cell-based, human; conditions: A549, 48 h
Method: (§1) The effect of compound 12b on the expression of BAX and Bcl‐2 was determined using qRT-PCR as described in Supplementary data[60–62].

BAX/Bcl-2 ratio = BAX/Bcl-2 ratio from qRT-PCR in A549 cells; assay type: cell-based, human; conditions: A549, 48 h, control set to 1
Method: as §1

[1] = A549, 48 h, mean ± SEM, listed as 12 b

SMILES: CC(=NNc1nc(Nc2ccccc2)nc2c1cnn2-c1ccccc1)c1ccc(Cl)cc1 [Compound 12b, 4–(2-(1–(4-Chlorophenyl)ethylidene)hydrazinyl)-N,1-diphenyl-1H-pyrazolo[3,4-d]pyrimidin-6-amine]
- Apoptosis Early (Right Bottom) (A549 cells; A549, 48 h, mean ± SEM): 67.69%
- Apoptosis Late (Right Top) (A549 cells; A549, 48 h, mean ± SEM): 0.64%
- Necrosis (Left Top) (A549 cells; A549, 48 h, mean ± SEM): 0.10 ± 0.02%
- Viable (Left Bottom) (A549 cells; A549, 48 h, mean ± SEM): 31.57 ± 4.64%
- Apoptosis Early (Right Bottom) (A549 cells; [1]): 67.69 ± 4.86 %
- Apoptosis Late (Right Top) (A549 cells; [1]): 0.64 ± 0.30%
- fold decrease in the ratio of viable cells (A549 cells; vs untreated A549, 48 h): 3 fold
- fold increase in the early apoptosis ratio (A549 cells; vs untreated A549, 48 h): 11 fold
- fold increase in the late apoptosis ratio (A549 cells; vs untreated A549, 48 h): 1.5 fold
- Selectivity index (SI) A549 (WI-38; cytotoxicity against WI-38 / cytotoxicity against A549): 4.77
- Selectivity index (SI) HCT-116 (WI-38; cytotoxicity against WI-38 / cytotoxicity against HCT-116): 2.00
- HillSlope (best-fit value), WI-38 (WI-38; supplement graph): -0.4504
- LogIC50 (best-fit value), WI-38 (WI-38; supplement graph): 1.593
- Gene expression (Fold Change) Bcl-2 (Bcl-2; control set to 1): 0.40 ± 0.08 Fold Change
- fold decrease in Bcl-2 gene expression (Bcl-2; vs untreated): 2.5 fold
- Gene expression (Fold Change) BAX/Bcl-2 ratio (BAX/Bcl-2 ratio): 8.8 Fold Change and 8.80 ± 1.41 Fold Change
